Patent publication EP0414533A1, “Use of iodopropargyl esters of alpha-amino acid derivatives as antimicrobial agents” (ROHM AND HAAS COMPANY, priority 1989, dated 1991)
Values after ≈ are worked out from the molar mass of the structure shown. Read-outs that look alike come from different tables or passages of the source.

Experiments:
Aspergillus niger (ANIG) = experiment: Minimum inhibitory concentration (MIC), broth two-fold serial dilution test; format: cell-based; details: Aspergillus niger, IIIB, trypticase soy broth (complex media); Table IIIb; read-out: MIC (F) ANIG
[1] = tested on: MIXED COOLING TOWER ALGAE; experiment: MIC test against mixed cooling tower algae; format: cell-based, green algae and blue-green bacteria; details: Table VIII
Protocol: The algae culture contains green algae and blue-green bacteria, and is obtained from a cooling tower in Spring House, Pennsylvania. The algae culture is grown in Allen's medium on a rotary shaker under flourescent room lighting. This culture is further diluted with Allen's medium and then added to the test vessel.

ALT = experiment: In-vitro plant fungicide test; format: cell-based; details: Table IVb, read-out: % Control at (ppm) indicated ALT
Botrytis cinerea (BOC) = experiment: In-vitro plant fungicide test; format: cell-based; details: Botrytis cinerea
COL = experiment: In-vitro plant fungicide test; format: cell-based; details: Table IVb, read-out: % Control at (ppm) indicated COL
MON = experiment: In-vitro plant fungicide test; format: cell-based; details: Table IVb, read-out: % Control at (ppm) indicated MON
[2] = tested on: Phytophthora capsici (PHY); experiment: In-vitro plant fungicide test; format: cell-based; details: Phytophthora capsici
Piricularia oryzae (PIR) = experiment: microbe, parasite or virus in culture; format: cell-based
PSH = experiment: In-vitro plant fungicide test; format: cell-based; details: Table IVb, read-out: % Control at (ppm) indicated PSH
Pythium ultimum (PYU) = experiment: In-vitro plant fungicide test; format: cell-based; details: Globisporangium ultimum
Septoria nodorum (SEP) = experiment: In-vitro plant fungicide test; format: cell-based; details: Parastagonospora nodorum
8 FUNGI = experiment: Microbicides secondary test against 8 fungi on Mycophile Agar at pH 5.0 (Table VI); format: cell-based; set-up: key: 1= no growth; 0= growth of the indicated fungi at dose indicated in ppm; details: for ANIG growth: Aspergillus niger; for APUL growth: Aureobasidium pullulans; for CGLO growth: Chaetomium globosum; for CRES growth: Cladosporium resinae; for GTRA growth: Gloeophyllum trabeum; for PFUN growth: Penicillium funiculosum; for RRUB growth: Rhodotorula rubra; for SSER growth: Sacharomyces cerevisiae
Source text: The results of the minimum inhibitory concentration (MIC) tests of compounds of this invention are shown in Tables IIIa IIIb, IIIc, V, VI, VII, and VIII against the microorganisms shown in Table IX.

THREE FUNGI = experiment: MIC test against three fungi in Mycophile Broth, pH 5.0, read after 8 days (Table VII); format: cell-based; details: 192 h, serial dilutions from 50 ppm, read after 8 days of incubation
[3] = tested on: Pseudomonas fluorescens (PSFL); experiment: Minimum inhibitory concentration (MIC), broth two-fold serial dilution test; details: Pseudomonas fluorescens, IIIB, read-out: MIC (G-) PSFL, trypticase soy broth (complex media); Table IIIb
Escherichia coli (ECOL) = experiment: as above; details: Escherichia coli, IIIB, read-out: MIC (G-) ECOL, trypticase soy broth (complex media); Table IIIb
[4] = tested on: Staphylococcus aureus (SAUR); experiment: as above; details: Staphylococcus aureus, IIIB, read-out: MIC (G+) SAUR, trypticase soy broth (complex media); Table IIIb

SMILES: CC(=O)NCC(=O)OCC#CI [Compound 28, N-acetylglycine iodopropargyl ester]
- MIC (Aspergillus niger (ANIG)): 2 µg/mL (≈ 7.12 µM)
- MIC [1]: 6.2 µg/mL (≈ 22.1 µM)
- inhibition of growth at 1.5 ppm (ALT; 1.5 ppm): 0%
- inhibition of growth at 3 ppm (ALT; 3 ppm): 0%
- inhibition of growth at 6 ppm (ALT; 6 ppm): 75%
- inhibition of growth at 12 ppm (ALT; 12 ppm): 100%
- inhibition of growth at 25 ppm (ALT; 25 ppm): 100%
- inhibition of growth at 0.2 ppm (ALT; .2 ppm): 0%
- inhibition of growth at 0.4 ppm (ALT; .4 ppm): 0%
- inhibition of growth at 0.8 ppm (ALT; .8 ppm): 0%
- inhibition of growth at 1.5 ppm (Botrytis cinerea (BOC); 1.5 ppm, Table IVb, read-out: % Control at (ppm) indicated BOC): 0%
- inhibition of growth at 6 ppm (Botrytis cinerea (BOC); 6 ppm, Table IVb, read-out: % Control at (ppm) indicated BOC): 0%
- inhibition of growth at 25 ppm (Botrytis cinerea (BOC); Table IVa, *=Phytotoxic, read-out: % Control at 25 ppm BOC): 100%
- inhibition of growth at 25 ppm (Botrytis cinerea (BOC); Table IVb, read-out: % Control at (ppm) indicated BOC): 100%
- inhibition of growth at 0.2 ppm (Botrytis cinerea (BOC); .2 ppm, Table IVb, read-out: % Control at (ppm) indicated BOC): 0%
- inhibition of growth at 0.4 ppm (Botrytis cinerea (BOC); .4 ppm, Table IVb, read-out: % Control at (ppm) indicated BOC): 0%
- inhibition of growth at 0.8 ppm (Botrytis cinerea (BOC); .8 ppm, Table IVb, read-out: % Control at (ppm) indicated BOC): 0%
- inhibition of growth at 1.5 ppm (COL; 1.5 ppm): 0%
- inhibition of growth at 3 ppm (COL; 3 ppm): 0%
- inhibition of growth at 6 ppm (COL; 6 ppm): 0%
- inhibition of growth at 12 ppm (COL; 12 ppm): 0%
- inhibition of growth at 25 ppm (COL; 25 ppm): 50%
- inhibition of growth at 0.2 ppm (COL; .2 ppm): 0%
- inhibition of growth at 0.4 ppm (COL; .4 ppm): 0%
- inhibition of growth at 0.8 ppm (COL; .8 ppm): 0%
- inhibition of growth at 1.5 ppm (MON; 1.5 ppm): 0%
- inhibition of growth at 6 ppm (MON; 6 ppm): 100%
- inhibition of growth at 25 ppm (MON; 25 ppm): 100%
- inhibition of growth at 0.2 ppm (MON; .2 ppm): 0%
- inhibition of growth at 0.4 ppm (MON; .4 ppm): 0%
- inhibition of growth at 0.8 ppm (MON; .8 ppm): 0%
- inhibition of growth at 1.5 ppm ([2]; 1.5 ppm, Table IVb, read-out: % Control at (ppm) indicated PHY): 0%
- inhibition of growth at 6 ppm ([2]; 6 ppm, Table IVb, read-out: % Control at (ppm) indicated PHY): 100%
- inhibition of growth at 25 ppm ([2]; Table IVa, read-out: % Control at 25 ppm PHY): 100%
- inhibition of growth at 25 ppm ([2]; Table IVb, read-out: % Control at (ppm) indicated PHY): 100%
- inhibition of growth at 0.2 ppm ([2]; .2 ppm, Table IVb, read-out: % Control at (ppm) indicated PHY): 0%
- inhibition of growth at 0.4 ppm ([2]; .4 ppm, Table IVb, read-out: % Control at (ppm) indicated PHY): 0%
- inhibition of growth at 0.8 ppm ([2]; .8 ppm, Table IVb, read-out: % Control at (ppm) indicated PHY): 0%
- inhibition of growth at 1.5 ppm (Piricularia oryzae (PIR); 1.5 ppm, read-out: % Control at (ppm) indicated PIR): 0%
- inhibition of growth at 6 ppm (Piricularia oryzae (PIR); 6 ppm, read-out: % Control at (ppm) indicated PIR): 100%
- inhibition of growth at 25 ppm (Piricularia oryzae (PIR); 25 ppm, read-out: % Control at (ppm) indicated PIR): 100%
- inhibition of growth at 0.2 ppm (Piricularia oryzae (PIR); .2 ppm, read-out: % Control at (ppm) indicated PIR): 0%
- inhibition of growth at 0.4 ppm (Piricularia oryzae (PIR); .4 ppm, read-out: % Control at (ppm) indicated PIR): 0%
- inhibition of growth at 0.8 ppm (Piricularia oryzae (PIR); .8 ppm, read-out: % Control at (ppm) indicated PIR): 0%
- inhibition of growth at 25 ppm (Piricularia oryzae (PIR); read-out: % Control at 25 ppm PIR): 100%
- inhibition of growth at 1.5 ppm (PSH; 1.5 ppm): 95%
- inhibition of growth at 6 ppm (PSH; 6 ppm): 100%
- inhibition of growth at 25 ppm (PSH; 25 ppm): 100%
- inhibition of growth at 0.2 ppm (PSH; .2 ppm): 0%
- inhibition of growth at 0.4 ppm (PSH; .4 ppm): 0%
- inhibition of growth at 0.8 ppm (PSH; .8 ppm): 0%
- inhibition of growth at 1.5 ppm (Pythium ultimum (PYU); 1.5 ppm, Table IVb, read-out: % Control at (ppm) indicated PYU): 0%
- inhibition of growth at 6 ppm (Pythium ultimum (PYU); 6 ppm, Table IVb, read-out: % Control at (ppm) indicated PYU): 100%
- inhibition of growth at 25 ppm (Pythium ultimum (PYU); Table IVa, read-out: % Control at 25 ppm PYU): 100%
- inhibition of growth at 25 ppm (Pythium ultimum (PYU); Table IVb, read-out: % Control at (ppm) indicated PYU): 100%
- inhibition of growth at 0.2 ppm (Pythium ultimum (PYU); .2 ppm, Table IVb, read-out: % Control at (ppm) indicated PYU): 0%
- inhibition of growth at 0.4 ppm (Pythium ultimum (PYU); .4 ppm, Table IVb, read-out: % Control at (ppm) indicated PYU): 0%
- inhibition of growth at 0.8 ppm (Pythium ultimum (PYU); .8 ppm, Table IVb, read-out: % Control at (ppm) indicated PYU): 0%
- inhibition of growth at 1.5 ppm (Septoria nodorum (SEP); 1.5 ppm, Table IVb, read-out: % Control at (ppm) indicated SEP): 0%
- inhibition of growth at 6 ppm (Septoria nodorum (SEP); 6 ppm, Table IVb, read-out: % Control at (ppm) indicated SEP): 0%
- inhibition of growth at 25 ppm (Septoria nodorum (SEP); Table IVa, read-out: % Control at 25 ppm SEP): 100%
- inhibition of growth at 25 ppm (Septoria nodorum (SEP); Table IVb, read-out: % Control at (ppm) indicated SEP): 100%
- inhibition of growth at 0.2 ppm (Septoria nodorum (SEP); .2 ppm, Table IVb, read-out: % Control at (ppm) indicated SEP): 0%
- inhibition of growth at 0.4 ppm (Septoria nodorum (SEP); .4 ppm, Table IVb, read-out: % Control at (ppm) indicated SEP): 0%
- inhibition of growth at 0.8 ppm (Septoria nodorum (SEP); .8 ppm, Table IVb, read-out: % Control at (ppm) indicated SEP): 0%
- ANIG growth (8 FUNGI; 0.2 PPM): 0
- ANIG growth (8 FUNGI; 1.0 PPM): 0
- ANIG growth (8 FUNGI; 2.5 PPM): 0
- ANIG growth (8 FUNGI; 25 PPM): 1
- APUL growth (8 FUNGI; 0.2 PPM): 0
- APUL growth (8 FUNGI; 1.0 PPM): 0
- APUL growth (8 FUNGI; 2.5 PPM): 0
- APUL growth (8 FUNGI; 25 PPM): 1
- CGLO growth (8 FUNGI; 0.2 PPM): 0
- CGLO growth (8 FUNGI; 1.0 PPM): 0
- CGLO growth (8 FUNGI; 2.5 PPM): 0
- CGLO growth (8 FUNGI; 25 PPM): 1
- CRES growth (8 FUNGI; 0.2 PPM): 0
- CRES growth (8 FUNGI; 1.0 PPM): 0
- CRES growth (8 FUNGI; 2.5 PPM): 0
- CRES growth (8 FUNGI; 25 PPM): 1
- GTRA growth (8 FUNGI; 0.2 PPM): 0
- GTRA growth (8 FUNGI; 1.0 PPM): 0
- GTRA growth (8 FUNGI; 2.5 PPM): 0
- GTRA growth (8 FUNGI; 25 PPM): 1
- PFUN growth (8 FUNGI; 0.2 PPM): 0
- PFUN growth (8 FUNGI; 1.0 PPM): 0
- PFUN growth (8 FUNGI; 2.5 PPM): 0
- PFUN growth (8 FUNGI; 25 PPM): 1
- RRUB growth (8 FUNGI; 0.2 PPM): 0
- RRUB growth (8 FUNGI; 1.0 PPM): 0
- RRUB growth (8 FUNGI; 2.5 PPM): 0
- RRUB growth (8 FUNGI; 25 PPM): 1
- SSER growth (8 FUNGI; 0.2 PPM): 0
- SSER growth (8 FUNGI; 1.0 PPM): 0
- SSER growth (8 FUNGI; 2.5 PPM): 0
- SSER growth (8 FUNGI; 25 PPM): 1
- MIC (THREE FUNGI; Aspergillus niger, read-out: MIC ANIG): 12.5 µg/mL (≈ 44.5 µM)
- MIC (THREE FUNGI; Aureobasidium pullulans, read-out: MIC APUL): 50 µg/mL (≈ 178 µM)
- MIC (THREE FUNGI; Gloeophyllum trabeum, read-out: MIC GTRA): 6.2 µg/mL (≈ 22.1 µM)
- MIC [3]: 63 µg/mL (≈ 224 µM)
- MIC (Escherichia coli (ECOL)): 63 µg/mL (≈ 224 µM)
- MIC [4]: 63 µg/mL (≈ 224 µM)
